Patent US10952415B2, “Prostate cancer cell lines, gene signatures and uses thereof” (priority 2011, dated 2021)

Assays:
PEC lines = experiment: Experimental metastasis assay: intracardiac injection of Luc2-Tomato-Red PEC lines, bioluminescence, X-ray and F-18-NaF imaging; assay type: in vivo, FVB mice
PEC-Src line = experiment: Three-dimensional (Matrigel) invasion assay; assay type: cell-based, murine; details: 10 ug/ml osteopontin or 15 ng/ml CCL5 as chemoattractant in upper chamber, three days
Experimental: The three-dimensional invasion assay was performed as previously reported. […] The transwell was incubated at 37° C. overnight to allow the collagen to solidify. 30,000 cells were then seeded on the bottom of the transwell membrane and allowed to attach. Serum-free growth medium was placed into the bottom chamber, while 10 ug/ml osteopontin (R&D System), or 15 ng/ml CCL5 (R&D System), or 10% FBS was used as a chemo attractant in the medium of the upper chamber. The cells were then chemo attracted across the filter through the collagen above for three days. Cells were fixed in 4% formaldehyde, permeabilized with 0.2% Triton-X in PBS and then stained with […] propidium iodide (PI) for 2 h. Fluorescence was analyzed by confocal z sections (one section every […]) at 10× magnification from the bottom of the filter using a Zeiss LSM 510 Meta inverted confocal microscope at the Kimmel Cancer Center Bioimaging Facilit.
For the comparison to tissue, the in vivo tumor gene expression in the oncogene transformed PEC was compared with the expression in vivo in the dorsolateral ventral prostate of mice with the same strain. […] Upregulation of the receptor ligands CCL2, CCL7, and CCL8 was observed (2- to 3-fold). CCL7, CCL8 and CCL5 are ligands for CCR5, CCL8 and CCL5 for CCR1 (FIG. 16H). […]

[1] = Maraviroc 8 mg/kg oral vs control, FVB mice, 2 weeks after intracardiac injection of PEC lines, N=8 per group

Row | Molecule | reduction of bony metastasis (lower limb bony mass) (PEC lines; [1]) | reduction of total body metastatic burden (photon flux) (PEC lines; [1]) | effect on metastasis (result in words) (PEC lines; daily oral CCR5 antagonist, bony / spinal osteolytic metastasis in mice) | reduction of spine metastasis (PEC lines; daily oral treatment, F-18-NaF imaging correlated with X-ray, FVB mice) | Matrigel invasion of the PEC-Src line (result in words) (PEC-Src line)
1 | Maraviroc | > 50% | > 50% | reduction in metastasis | > 90% | –
2 | osteopontin [OPN] | – | – | – | – | enhanced PEC invasiveness into matrigel
3 | CCR5: printed CCR5, probably CCL5 (R&D System), the CCR5 ligand used as chemoattractant (protein, UniProt P13501 24-91, looked up) C-C motif chemokine 5: SPYSSDTTPCCFAYIARPLPRAHIKEYFYTSGKCSNPAVVFVTRKNRQVCANPEKKWVREYINSLEMS | – | – | – | – | enhanced PEC invasiveness into matrigel
